Laboratory results: patent publication US20220218738A1, “POTASSIUM-BINDING AGENTS FOR USE IN HEMODIALYSIS PATIENTS” (AstraZeneca AB, priority 2019, published 2022)

System: hyperkalemia in patients on hemodialysis
Assay: Phase 3b randomized, double-blind, placebo-controlled study to reduce incidence of pre-dialysis hyperkalemia with SZC
Set-up: species or system human
Conditions: in vivo
Experimental: A Phase 3b, Multicenter, Prospective, Randomized, Double Blind, Placebocontrolled Study to Reduce Incidence of Pre-Dialysis Hyperkalemia with Sodium Zirconium Cyclosilicate (SZC) The study was carried out to evaluate the efficacy of Sodium Zirconium Cyclosilicate in the treatment of hyperkalemia in patients on hemodialysis. The study was designed to include approximately 180 patients with ESRD receiving maintenance hemodialysis treatments three times per week with an indication for treatment of hyperkalemia (FIG. 1). The study is a randomized, double-blind study with two treatment groups, SZC or placebo, and includes hemodialysis patients that have been on dialysis for a minimum of three months and receive treatment three times a week. Patients must have hemodialysis access consisting of an arteriovenous fistula, AV graft, or tunneled (permanent) catheter which is expected to remain in place for the entire duration of the study (FIG. 2).
The starting dose of SZC will be 5 g once daily on non-dialysis day and may be adjusted to a maximum of 15 g per non-dialysis day to maintain a pre-dialysis S-K between 4-5 mmol/L. SZC or placebo will be administered orally on non-dialysis days for a treatment period of eight weeks. Patients will be randomized (1:1) to double-blind treatment with either SZC or placebo, started at 5 g once daily on non-dialysis days, and titrated during a period of four weeks to achieve and maintain a pre-dialysis serum potassium between 4 and 5 mmol/L after the Long Inter-Dialytic Interval (LIDI). Maximum SZC dose is 15 g once daily on non-dialysis days. Treatment will be continued unchanged for an additional four week evaluation period to complete a total of 8 weeks. The primary benefit for patients randomized to SZC is expected to be the maintenance of normokalemia during the long interdialytic interval, potentially including the relief of associated signs and symptoms and an improved quality of life.
For inclusion in the study patients should fulfil the following criteria: 1. Provision of informed consent prior to any study specific procedures. 2. Female or male aged >18 years at screening Visit 1. For patients aged <20 years and enrolled in Japan, a written informed consent should be obtained from the patient and his or her legally acceptable representative. 3. Receiving hemodialysis (or hemodiafiltration) three times a week for treatment of endstage renal disease (ESRD) for at least three months before randomization. 4. […]
Patients should not enter the study if any of the following exclusion criteria are fulfilled: 1. […] Hemoglobin <9 g/dL on screening (as assessed on Visit 1). […]

Substance: Sodium Zirconium Cyclosilicate [SZC]
- number of patients with adverse events: 40
- number of patients with serious adverse event: 7
- overall safety: no safety concerns
- patients with pre-dialysis hypokalemia (serum K<3.5 mmol/L): five
